The structures appear in SMILES notation. Structures can show the parent of a compound that is named as a salt.

This test concerns bacterial strains that express the class D cephalosporinase OXA-15. Kind of test: Synergy MIC / standard BLI potentiation MIC assay, strains expressing OXA-15.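 Further: more active means a lower MIC or sMIC than Avibactam.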 The format is cell-based, E. coli. As to conditions: in the presence of a β-lactam; comparator Avibactam (CCC). The protocol: Unless otherwise indicated, the activity of the BLI compounds can be described by the MIC value obtained from a Synergy MIC assay or a BLI potentiation assay (e.g as described herein), both of which are run in the presence of a β-lactam.
The experimental protocol was performed according to Clinical and Laboratory Standards Institute (CLSI) guidelines with modifications as described below (CLSI guidelines can be derived from the CLSI document M07-A9 published in January 2012: “Methods for Dilution Antimicrobial Susceptibility Tests for Bacteria That Grow Aerobically; Approved Standard-Ninth Edition”).
To prepare for MIC testing, frozen glycerol stocks of clinical isolates (Klebsiella pneumoniae, Eschericia coli, Enterobacter spp, Citrobacter spp, or Pseudomonas aeruginosa) were used to streak for isolated colonies on rich, non-selective, tryptic soy agar containing 5% sheep's blood (TSAB). Frozen glycerol stocks of laboratory engineered, isogenic E. coli strains, which contain cloned β-lactamase expressing plasmids were used to streak for isolated colonies on rich, selective LB agar supplemented with 25 μg/mL tetracycline to maintain the plasmid. All strains were incubated at 37° C. for 18-24 hrs.
On the day of testing, primary cultures were started by scraping off 5-10 colonies from the TSAB plates containing clinical strains or the tetracycline supplemented LB plates containing engineered strains. The clinical strain material was suspended in ˜5 mL of cation adjusted Mueller Hinton Broth (CAMHB) in 14 mL culture tubes. The engineered strain material was suspended in CAMHB (supplemented with 25 μg/mL tetracycline) in 14 mL culture tubes. All strains were incubated at 37° C. with aeration (200 rpm) for ˜2 hrs until the optical density at 600 nm (OD600) was ≧0.1.
The two compound components of the assay were each diluted in CAMHB and added to the 96-well broth microdilution assay plates. 50 μL of the β-lactam was added to each well of the assay plate in 2-fold dilutions with final concentrations ranging from 128 to 0.13 μg/mL. 25 μL of the BLI compound was added to all wells in the broth microdilution plates at a final concentration of 4 μg/mL. Inoculum cultures were prepared by standardizing the primary cultures to OD600=0.1 and then adding 20 μL of the adjusted primary culture per 1 mL CAMHB for clinical strains or CAMHB (supplemented with tetracycline at 100 μg/mL) for engineered strains, so that the final inoculum density was ˜10^5 colony forming units per milliliter. Diluted inoculum cultures were used to inoculate 25 μl, per well in 96-well broth microdilution assay plates. The final volume of each well was 100 μL and contained a β-lactam at different concentrations, a BLIcompound at 4 μg/mL concentration, the bacterial culture at an OD600 of approximately 0.001 and when necessary tetracycline at 25 μg/mL.
Plates were incubated for 18-20 hours at 37° C. with aeration (200 rpm). Following incubation, growth was confirmed visually placing plates over a viewing apparatus (stand with a mirror underneath) and then OD600 was measured using a SpectraMax 340PC384 plate reader (Molecular Devices, Sunnyvale, Calif.). Growth was defined as turbidity that could be detected with the naked eye or achieving minimum OD600 of 0.1. MIC values were defined as the lowest concentration producing no visible turbidity.
The synergy MIC (sMIC) assay determines the concentration of the BLI required to potentiate the activity of a fixed concentration of a β-lactam antibiotic against β-lactamase producing bacterial strains. The experimental protocol was performed according to Clinical and Laboratory Standards Institute (CLSI) guidelines with modifications as described below (CLSI guidelines can be derived from the CLSI document M07-A9 published in January 2012: “Methods for Dilution Antimicrobial Susceptibility Tests for Bacteria That Grow Aerobically; Approved Standard-Ninth Edition”). […]
On to `N[C@H]1C[C@H](NCc2nnc([C@@H]3CC[C@@H]4CN3C(=O)N4OS(=O)(=O)O)o2)C1` [Compound 757, (2S,5R)-2-(5-(((1r,3S)-3-aminocyclobutyl)amino)methyl)-1,3,4-oxadiazol-2-yl)-7-oxo-1,6-diazabicyclo[3.2.1]octan-6-yl hydrogen sulfate], for which the “activity against bacterial strains that express OXA-15 β-lactamase compared with Avibactam” value (from here on “activity … compared with Avibactam”) is listed as “more active than Avibactam”.

As for `N=C(N)N[C@H]1C[C@H](c2nnc([C@@H]3CC[C@@H]4CN3C(=O)N4OS(=O)(=O)O)o2)C1` [Compound 748, (2S,5R)-2-(5-((1r,3S)-3-guanidinocyclobutyl)-1,3,4-oxadiazol-2-yl)-7-oxo-1,6-diazabicyclo[3.2.1]octan-6-yl hydrogen sulfate], the “activity … compared with Avibactam” value is “more active than Avibactam”.

With `O=C1N2C[C@@H](CC[C@H]2c2nnc(N3CCNCC3)o2)N1OS(=O)(=O)O` [Compound 713, (2S,5R)-7-oxo-2-(5-(piperazin-1-yl)-1,3,4-oxadiazol-2-yl)-1,6-diazabicyclo[3.2.1]octan-6-yl hydrogen sulfate], the “activity … compared with Avibactam” value was “more active than Avibactam”.

With `O=C1N2C[C@@H](CC[C@H]2c2nnc(C3CCNCC3)s2)N1OS(=O)(=O)O` [Compound 719, (2S,5R)-7-oxo-2-(5-(piperidin-4-yl)-1,3,4-thiadiazol-2-yl)-1,6-diazabicyclo[3.2.1]octan-6-yl hydrogen sulfate], the “activity … compared with Avibactam” value is “more active than Avibactam”.

With `O=C1N2C[C@@H](CC[C@H]2c2nnc([C@@H]3CNCCN3)o2)N1OS(=O)(=O)O` [Compound 778, (2S,5R)-7-oxo-2-(5-((S)-piperazin-2-yl)-1,3,4-oxadiazol-2-yl)-1,6-diazabicyclo[3.2.1]octan-6-yl hydrogen sulfate], the “activity … compared with Avibactam” value is on record as “more active than Avibactam”.

In the case of `NCC(N)c1nnc([C@@H]2CC[C@@H]3CN2C(=O)N3OS(=O)(=O)O)o1` (stereo partly drawn) [Compound 717, (2S,5R)-2-(5-(1,2-diaminoethyl)-1,3,4-oxadiazol-2-yl)-7-oxo-1,6-diazabicyclo[3.2.1]octan-6-yl hydrogen sulfate], the “activity … compared with Avibactam” value is reported as “more active than Avibactam”.

For `NCC(O)c1nnc([C@@H]2CC[C@@H]3CN2C(=O)N3OS(=O)(=O)O)o1` (stereo partly drawn) [Compound 715, (2S,5R)-2-(5-(2-amino-1-hydroxyethyl)-1,3,4-oxadiazol-2-yl)-7-oxo-1,6-diazabicyclo[3.2.1]octan-6-yl hydrogen sulfate], the “activity … compared with Avibactam” value is given as “more active than Avibactam”.

For `O=C1N2C[C@@H](CC[C@H]2c2nnc(CNC3CCNCC3)o2)N1OS(=O)(=O)O` [Compound 769, (2S,5R)-7-oxo-2-(5-((piperidin-4-ylamino)methyl)-1,3,4-oxadiazol-2-yl)-1,6-diazabicyclo[3.2.1]octan-6-yl hydrogen sulfate], the “activity … compared with Avibactam” value is listed as “more active than Avibactam”.

For the compound `NCC(O)Cc1nnc([C@@H]2CC[C@@H]3CN2C(=O)N3OS(=O)(=O)O)o1` (stereo partly drawn) [Compound 733, (2S,5R)-2-(5-(3-amino-2-hydroxypropyl)-1,3,4-oxadiazol-2-yl)-7-oxo-1,6-diazabicyclo[3.2.1]octan-6-yl hydrogen sulfate], the “activity … compared with Avibactam” value is reported as “more active than Avibactam”.

Regarding `O=C1N2C[C@@H](CC[C@H]2c2nnc(CCCN3CCNCC3)o2)N1OS(=O)(=O)O` [Compound 792, (2S,5R)-7-oxo-2-(5-(3-(piperazin-1-yl)propyl)-1,3,4-oxadiazol-2-yl)-1,6-diazabicyclo[3.2.1]octan-6-yl hydrogen sulfate], the “activity … compared with Avibactam” value was “more active than Avibactam”.

On to `NC1CCN(c2nnc([C@@H]3CC[C@@H]4CN3C(=O)N4OS(=O)(=O)O)o2)CC1` [Compound 773, (2S,5R)-2-(5-(4-aminopiperidin-1-yl)-1,3,4-oxadiazol-2-yl)-7-oxo-1,6-diazabicyclo[3.2.1]octan-6-yl hydrogen sulfate], for which the “activity … compared with Avibactam” value was “more active than Avibactam”.

For `N=C(N)NCc1nnc([C@@H]2CC[C@@H]3CN2C(=O)N3OS(=O)(=O)O)o1` [Compound 704, (2S,5R)-2-(5-(guanidinomethyl)-1,3,4-oxadiazol-2-yl)-7-oxo-1,6-diazabicyclo[3.2.1]octan-6-yl hydrogen sulfate], the “activity … compared with Avibactam” value was “more active than Avibactam”.

As for `N=C(N)N1CCC(c2nnc([C@@H]3CC[C@@H]4CN3C(=O)N4OS(=O)(=O)O)o2)CC1` [Compound 712, (2S,5R)-2-(5-(1-carbamimidoylpiperidin-4-yl)-1,3,4-oxadiazol-2-yl)-7-oxo-1,6-diazabicyclo[3.2.1]octan-6-yl hydrogen sulfate], the “activity … compared with Avibactam” value is recorded as “more active than Avibactam”.

Regarding `N[C@H]1CC[C@@H](c2nnc([C@@H]3CC[C@@H]4CN3C(=O)N4OS(=O)(=O)O)o2)CC1` [Compound 780, (2S,5R)-2-(5-((1s,4R)-4-aminocyclohexyl)-1,3,4-oxadiazol-2-yl)-7-oxo-1,6-diazabicyclo[3.2.1]octan-6-yl hydrogen sulfate], the “activity … compared with Avibactam” value is listed as “more active than Avibactam”.

Take `O=C1N2C[C@@H](CC[C@H]2c2nnc(N3CCNCC3)s2)N1OS(=O)(=O)O` [Compound 797, (2S,5R)-7-oxo-2-(5-(piperazin-1-yl)-1,3,4-thiadiazol-2-yl)-1,6-diazabicyclo[3.2.1]octan-6-yl hydrogen sulfate]: the “activity … compared with Avibactam” value is listed as “more active than Avibactam”.

For the compound `N=C(N)NCCCc1nnc([C@@H]2CC[C@@H]3CN2C(=O)N3OS(=O)(=O)O)o1` [Compound 714, (2S,5R)-2-(5-(3-guanidinopropyl)-1,3,4-oxadiazol-2-yl)-7-oxo-1,6-diazabicyclo[3.2.1]octan-6-yl hydrogen sulfate], the “activity … compared with Avibactam” value is “more active than Avibactam”.

As for `O=C1N2C[C@@H](CC[C@H]2c2nnc(CC3CNC3)o2)N1OS(=O)(=O)O` [Compound 725, (2S,5R)-2-(5-(azetidin-3-ylmethyl)-1,3,4-oxadiazol-2-yl)-7-oxo-1,6-diazabicyclo[3.2.1]octan-6-yl hydrogen sulfate], the “activity … compared with Avibactam” value was “more active than Avibactam”.

Take `NCCNCCc1nnc([C@@H]2CC[C@@H]3CN2C(=O)N3OS(=O)(=O)O)o1` [Compound 716, (2S,5R)-2-(5-(2-((2-aminoethyl)amino)ethyl)-1,3,4-oxadiazol-2-yl)-7-oxo-1,6-diazabicyclo[3.2.1]octan-6-yl hydrogen sulfate]: the “activity … compared with Avibactam” value is given as “more active than Avibactam”.

As for `N[C@H]1CC[C@H](c2nnc([C@@H]3CC[C@@H]4CN3C(=O)N4OS(=O)(=O)O)o2)CC1` [Compound 781, (2S,5R)-2-(5-((1r,4S)-4-aminocyclohexyl)-1,3,4-oxadiazol-2-yl)-7-oxo-1,6-diazabicyclo[3.2.1]octan-6-yl hydrogen sulfate], the “activity … compared with Avibactam” value is listed as “more active than Avibactam”.

`Nc1nnc([C@@H]2CC[C@@H]3CN2C(=O)N3OS(=O)(=O)O)o1` [Compound 707, (2S,5R)-2-(5-amino-1,3,4-oxadiazol-2-yl)-7-oxo-1,6-diazabicyclo[3.2.1]octan-6-yl hydrogen sulfate]: the “activity … compared with Avibactam” value is listed as “more active than Avibactam”.

The values are drawn from patent US8940897B2, “1,3,4-oxadiazole and 1,3,4-thiadiazole β-lactamase inhibitors” (priority 2012, dated 2015).
